According to patent publication EP0006061A1, “Medicinal compound consisting of a derivative of cyclopentyl aldehyde” (INSTITUT DE RECHERCHES CHIMIQUES ET BIOLOGIQUES APPLIQUEES …, priority 1978, dated 1979):
≈ marks a conversion by molar mass, not a printed value. Where two headings read alike, the source gives them in different places.

Legend:
[1] = system: Klebsiella pneumoniae (souche 433); experiment: bacteriostatic activity (MIC); type: cell-based; conditions: read-out: CMI
Procedure: (§1) Les essais pharmaceutiques qui ont été mis en oeuvre avec les produits des exemples 1 et 4, ont été résumés ci-après : • 1°/ essais avec l'exemple 1 • a/ activité bactériostatique L' α-(2-formyl-3-méthyl-cyclopentyl)-acétal- déhyde inhibe les bactéries Gram (+) et Gram (-). Les CMI (concentration minimale inhibitrice) sont les suivantes : 0,75 mg/ml sur Staphylococcus aureus Londres, 1,2 mg/ml sur Escherichia coli, et 1,5 mg/ml sur Proteus • b/ activité antispasmodique : Les DE-50 du produit de l'exemple 1 ont été déterminés • (i) in vitro sur iléon isolé de cobaye vis à vis de l'histamine : DE - 50 = 50 γ/ml; • (ii) in vivo sur l'animal vivant selon la méthode de KONZETT & ROESLLER : DE - 50 = 2,6 mg/kg par administration i.v. • c/ activité antianaphylactique : Des cobayes mâles sont sensibilisés par deux injections de 0,5 ml d'une solution d'albumine à 2 g/1, à deux jours d'intervalle. Quatre semaines aprës,le choc anaphylactique mortel est provoqué par injection i.v. de 0,2 ml d'une solution aqueuse d'ovalbumine à 2 g/1. Les produits à tester sont administrés 30 mn avant (administration i.p.) ou en même temps (administration i.v.) que l'injection provoquant ledit choc anaphylactique. Les résultats sont donnés dans le tableau I pour le produit de l'exemple 1 et la Prométhazine en tant que produit de référence : [formula] • 2°/ essais avec le produit de l'exemple 4 (constitué par un mélange de 87 % en poids d'isomère "cis-trans" et 13 % en poids d'isomère "trans-cis). • a/ activité bactériostatigue : Le produit de l'exemple 4 inhibe les bactéries Gram (+) et Gram (-). Ses CMI sont les suivantes : • 1,5 mg/m sur Staphylococcus aureus, Londres • 1 mg/ml sur Escherichia coli (souche 548) • 1,75 mg/ml sur Proteus vulgaris (souche 1557) • 2,5 mg/ml sur Klebsiella pneumoniae (souche 433), • 1 mg/ml sur Salmonella typhi murium (souche IP), • 1,5 mg/ml sur Staphylococcus aureus (souche 634), • 1,25 mg/ml sur Streptococcus (souche 1178) • 1,25 mg/ml sur Bacillus substilis, (les souches 548, 1557, 433, 634, et 1178 étant celles du catalogue de la collection du "Centre International de Distribution de Souches et d'Information sur les Types Microbiens" de . Lausanne, et la souche "IP" provenant de l'Institut Pasteur de Paris. • b/ activité bactéricide Le produit de l'exemple 4 détruit les bactéries Gram (+) et Gram (-). Ses CMB (concentration minimalebactéricide) déterminées sur milieu solide (quand moins de 0,01% de germes survivent) sont : • 1,75 mg/ml sur Staphylococcus aureus Londres • 1,5 mg/ml sur Escherichia coli (souche 548) • 2 mg/ml sur Proteus vulgaris (souche 1557) • 3 mg/ml sur Klebsiella pneumoniae (souche 433), • 1,25 mg/ml sur Salmonella typhi murium (souche I.P.) • 1,75 mg/ml sur Staphylococcus aureus (souche 634) • 2 mg/ml sur Streptococcus (souche 1178) • 2,5 mg/ml sur Bacillus substilis. • c/ activité bronchospatique Des cobayes mâles ou femelles [20 animaux (pesant 300-500 g) par dose et par produit à tester] sont exposés à un aérosol de l'exemple 4 (50 g/l en solution eau-éthanol) ou de Prométhazine (produit de référence) pendant 10 mn.

[2] = system: Streptococcus (souche 1178); experiment: bacteriostatic activity (MIC); type: cell-based; conditions: read-out: CMI
Procedure: as §1

[3] = system: Proteus vulgaris (souche 1557); experiment: bacteriostatic activity (MIC); type: cell-based; conditions: read-out: CMI
Procedure: as §1

[4] = system: Escherichia coli (souche 548); experiment: bacteriostatic activity (MIC); type: cell-based; conditions: read-out: CMI
Procedure: as §1

[5] = system: Salmonella typhi murium (souche IP); experiment: bacteriostatic activity (MIC); type: cell-based; conditions: Salmonella enterica, read-out: CMI
Procedure: as §1

Bacillus substilis [6] = experiment: bacteriostatic activity (MIC); type: cell-based; conditions: read-out: CMI
Procedure: as §1

[7] = system: Staphylococcus aureus (souche 634); experiment: bacteriostatic activity (MIC); type: cell-based; conditions: read-out: CMI
Procedure: as §1

duodénum isolé de rat [8] = experiment: antispasmodic activity on isolated duodenum against barium chloride; type: cell-based; conditions: against BaCl2 (0,3 µg/ml), read-out: DE-50 (the source's name)
Procedure: (§2) L'activité antispasmodique du produit de l'exemple 4 a été étudiée sur le duodénum isolé de rat vis à vis de l'acétvlcholine et du chlorure de baryum. Les DE-50 du produit de l'exemple 4 sont : • (i) 13 µg/ml vis à vis de l'acétycholine (0,2 µg/ml), et • (ii) 10 µg/ml vis à vis de BaCl2 (0,3 µg/ml). g/ toxicité

acute toxicity (LD50) = experiment: acute toxicity (LD50); set-up: species or system souris; conditions: in vivo, mouse
Procedure: Les DL-50 du poids de l'exemple 4 chez la souris sont les suivantes : • DL-50 i.p. = 18 ± 3 mg/kg • DL-50 i.v. - 20 ± 3 mg/kg • DL-50 p.o. = 282 ± 3 mg/kg • DL-50 s.c. > 1000 mg/kg • DL-50 aérosol = 22 ± 3 mg/kg

rat femelle = experiment: anti-inflammatory activity, carrageenin oedema test; type: in vivo
Text: L'activité anti-inflammatoire de l'exemple 4 a été étudiée chez le rat femelle (de poids 100 g) selon le test de l'oedème à la carragéenine.Les résultats sont donnés dans le tableau IV où l'Indométacine est utilisée comme produit de référence : […]

cobayes [9] = experiment: histamine aerosol bronchospasm (time to apnoea); type: in vivo; conditions: aerosol for 10 min before histamine aerosol, controls 108 ± 18
Procedure: Les essais pharmaceutiques qui ont été mis en oeuvre avec les produits des exemples 1 et 4, ont été résumés ci-après : • 1°/ essais avec l'exemple 1 • a/ activité bactériostatique L' α-(2-formyl-3-méthyl-cyclopentyl)-acétal- déhyde inhibe les bactéries Gram (+) et Gram (-). Les CMI (concentration minimale inhibitrice) sont les suivantes : 0,75 mg/ml sur Staphylococcus aureus Londres, 1,2 mg/ml sur Escherichia coli, et 1,5 mg/ml sur Proteus • b/ activité antispasmodique : Les DE-50 du produit de l'exemple 1 ont été déterminés • (i) in vitro sur iléon isolé de cobaye vis à vis de l'histamine : DE - 50 = 50 γ/ml; • (ii) in vivo sur l'animal vivant selon la méthode de KONZETT & ROESLLER : DE - 50 = 2,6 mg/kg par administration i.v. • c/ activité antianaphylactique : Des cobayes mâles sont sensibilisés par deux injections de 0,5 ml d'une solution d'albumine à 2 g/1, à deux jours d'intervalle. Quatre semaines aprës,le choc anaphylactique mortel est provoqué par injection i.v. de 0,2 ml d'une solution aqueuse d'ovalbumine à 2 g/1. Les produits à tester sont administrés 30 mn avant (administration i.p.) ou en même temps (administration i.v.) que l'injection provoquant ledit choc anaphylactique. Les résultats sont donnés dans le tableau I pour le produit de l'exemple 1 et la Prométhazine en tant que produit de référence : [formula] • 2°/ essais avec le produit de l'exemple 4 (constitué par un mélange de 87 % en poids d'isomère "cis-trans" et 13 % en poids d'isomère "trans-cis). • a/ activité bactériostatigue : Le produit de l'exemple 4 inhibe les bactéries Gram (+) et Gram (-). […]

[10] = system: Klebsiella pneumoniae (souche 433); experiment: bactericidal activity (MBC) on solid medium; type: cell-based; conditions: less than 0,01% of germs survive, read-out: CMB (concentration minimalebactéricide)
Procedure: as §1

[11] = system: Streptococcus (souche 1178); experiment: bactericidal activity (MBC) on solid medium; type: cell-based; conditions: less than 0,01% of germs survive, read-out: CMB (concentration minimalebactéricide)
Procedure: as §1

[12] = system: Salmonella typhi murium (souche I.P.); experiment: bactericidal activity (MBC) on solid medium; type: cell-based; conditions: Salmonella enterica, less than 0,01% of germs survive, read-out: CMB (concentration minimalebactéricide)
Procedure: as §1

[13] = system: Proteus vulgaris (souche 1557); experiment: bactericidal activity (MBC) on solid medium; type: cell-based; conditions: less than 0,01% of germs survive, read-out: CMB (concentration minimalebactéricide)
Procedure: as §1

[14] = system: Escherichia coli (souche 548); experiment: bactericidal activity (MBC) on solid medium; type: cell-based; conditions: less than 0,01% of germs survive, read-out: CMB (concentration minimalebactéricide)
Procedure: as §1

[15] = system: Staphylococcus aureus Londres; experiment: bactericidal activity (MBC) on solid medium; type: cell-based; conditions: less than 0,01% of germs survive, read-out: CMB (concentration minimalebactéricide)
Procedure: as §1

Bacillus substilis [16] = experiment: bactericidal activity (MBC) on solid medium; type: cell-based; conditions: less than 0,01% of germs survive, read-out: CMB (concentration minimalebactéricide)
Procedure: as §1

[17] = system: Staphylococcus aureus (souche 634); experiment: bactericidal activity (MBC) on solid medium; type: cell-based; conditions: less than 0,01% of germs survive, read-out: CMB (concentration minimalebactéricide)
Procedure: as §1

duodénum isolé de rat [18] = experiment: antispasmodic activity on isolated duodenum against acetylcholine; type: cell-based; conditions: against acetylcholine (0,2 µg/ml), read-out: DE-50 (the source's name)
Procedure: as §2

cobayes [19] = experiment: antianaphylactic activity: ovalbumin aerosol in sensitised animals (time to dyspnoea); type: in vivo; conditions: aerosol pretreatment, controls 94 ± 39
Text: Des cobayes (mâles ou femelles) sont sensibilisés à l'ovalbumine quatre semaines avant le début de l'expérience. Chaque animal est exposé à un aérosol d'ovalbumine (obtenu à partir d'un milieu aqueux contenant 50 g/1 d'ovalbumine). Le choc anaphylactique se manifeste par l'apparition d'une dyspnée intense. Les temps d'apparition de la dyspnée sont comparés entre lot témoin et lots préalablement traités avec un aérosol du produit de l'exemple 4 (50 g/1 dans une solution eau-éthanol). Les résultats donnés dans le tableau IV, montrent que le produit de l'exemple 4 […] le temps d'apparition des troubles respiratoires provoqués par l'aérosol d'ovalbumine .

iléon isolé de cobaye = experiment: antianaphylactic activity in vitro: albumin-induced contraction of ileum from sensitised animals; type: cell-based; conditions: for amplitude des contractions: 2 min contact, 200 µg albumin, controls 147 ± 32
Procedure: Des cobayes mâles sont sensibilises par une injection i.p. de 100 mg/kg d'ovalbumine dans un volume égal d'adjuvant de Freund. Quatre semaines après, les animaux sont sacrifiés, on recueille chaque iléon qui est placé à 33°C dans un bain de Thyrode. Une contraction est provoquée par addition d'une dose de 200 µg d'albumine au liquide de survie. L'amplitude des contractions des témoins est comparée à l'amplitude des contractions après mise en contact du produit de l'exemple 4 pendant 2 mn. Les résultats donnés dans le tableau III montrent que le produit de l'exemple 4 réduit l'amplitude des contractions de l'iléon isolé de cobaye , cette réduction étant statistiquement significative.

C=C(C=O)C1CCC(C)C1C=O (stereo not drawn) [Ex. 4, α-(2-formyl-3-méthyl-cyclopentyl)-acrylaldéhyde]
MIC [1]: 2500 µg/mL (≈ 15 mM) | MIC [2]: 1250 µg/mL (≈ 7.52 mM) | MIC [3]: 1750 µg/mL (≈ 10.5 mM) | MIC [4]: 1000 µg/mL (≈ 6.02 mM) | MIC [5]: 1000 µg/mL (≈ 6.02 mM) | MIC (Bacillus substilis [6]): 1250 µg/mL (≈ 7.52 mM) | MIC [7]: 1500 µg/mL (≈ 9.02 mM) | EC50 (duodénum isolé de rat [8]): 10 µg/mL (≈ 0.0602 mM) | LD50 (acute toxicity (LD50); inhaled or intranasal, aerosol, read-out: DL-50 aérosol): 22 ± 3 mg/kg | LD50 (acute toxicity (LD50); ip, i.p., read-out: DL-50 i.p.): 18 ± 3 mg/kg | LD50 (acute toxicity (LD50); iv, i.v., read-out: DL-50 i.v.): 20 ± 3 mg/kg | LD50 (acute toxicity (LD50); po, p.o., read-out: DL-50 p.o.): 282 ± 3 mg/kg | LD50 (acute toxicity (LD50); sc, s.c., read-out: DL-50 s.c.): > 1000 mg/kg | inhibition par rapport aux témoins (rat femelle; dose 10 µg per rat): 26% | inhibition par rapport aux témoins (rat femelle; dose 50 µg per rat): 25% | inhibition par rapport aux témoins (rat femelle; dose 200 µg per rat): 41% | Apparition de l'apnée (en secondes) (cobayes [9]; 1 mg/kg): 130 ± 23 secondes | Apparition de l'apnée (en secondes) (cobayes [9]; 10 mg/kg): 169 ± 32 secondes | MBC [10]: 3000 µg/mL (≈ 18 mM) | MBC [11]: 2000 µg/mL (≈ 12 mM) | MBC [12]: 1250 µg/mL (≈ 7.52 mM) | MBC [13]: 2000 µg/mL (≈ 12 mM) | MBC [14]: 1500 µg/mL (≈ 9.02 mM) | MBC [15]: 1750 µg/mL (≈ 10.5 mM) | MBC (Bacillus substilis [16]): 2500 µg/mL (≈ 15 mM) | MBC [17]: 1750 µg/mL (≈ 10.5 mM) | EC50 (duodénum isolé de rat [18]): 13 µg/mL (≈ 0.0782 mM) | Dyspnée temps d'apparition (secondes) (cobayes [19]; 1 mg/kg): 120 ± 52 secondes | Dyspnée temps d'apparition (secondes) (cobayes [19]; 10 mg/kg): 130 ± 54 secondes | amplitude des contractions (iléon isolé de cobaye; 5 µg/ml): 91 ± 37 | amplitude des contractions (iléon isolé de cobaye; 10 µg/ml): 52 ± 16 | inhibition at 5 µg/mL (iléon isolé de cobaye; Cavia porcellus, 2 min, 5 µg/ml, read-out: variation de l'amplitude par rapport aux animaux témoins): 38% | inhibition at 10 µg/mL (iléon isolé de cobaye; Cavia porcellus, 2 min, 10 µg/ml, read-out: variation de l'amplitude par rapport aux animaux témoins): 65%

CC(CN1c2ccccc2Sc2ccccc21)N(C)C (stereo not shown) [Prométhazine, reference compound]
Apparition de l'apnée (en secondes) (cobayes [9]; 0,1 mg/kg): >600 secondes
